According to ChEMBL document CHEMBL3784948, “Pharmacokinetics of diclofenac and five metabolites after single doses in healthy volunteers and after repeated doses in patients” (Xenobiotica, 1988):
Each block holds one compound with its values, some of them ahead of it.

Tests used:
Type in all cases: ADME, organism-based
Plasma [1] = assay: Steady state trough plasma concentration in chronic polyarthritis patient (6 patients) assessed as 5-hydroxy diclofenac at 75 mg, po bid administered for 6 to 10 months by capillary column gas chromatographic method; settings: human, in vivo
Plasma [2] = assay: Steady state trough plasma concentration in chronic polyarthritis patient (6 patients) assessed as 3'-hydroxy diclofenac at 75 mg, po bid administered for 6 to 10 months by capillary column gas chromatographic method; settings: human, in vivo
Plasma [3] = assay: Steady state trough plasma concentration in chronic polyarthritis patient (6 patients) at 75 mg, po bid administered for 6 to 10 months by capillary column gas chromatographic method; settings: human, in vivo
Plasma [4] = assay: Steady state trough plasma concentration in chronic polyarthritis patient (6 patients) assessed as 4'-hydroxy diclofenac at 75 mg, po bid administered for 6 to 10 months by capillary column gas chromatographic method; settings: human, in vivo
Plasma [5] = assay: Steady state trough plasma concentration in chronic polyarthritis patient (6 patients) assessed as 3'-hydroxy-4'-methoxy diclofenac at 75 mg, po bid administered for 6 to 10 months by capillary column gas chromatographic method; settings: human, in vivo
Plasma [6] = assay: Steady state trough plasma concentration in chronic polyarthritis patient (6 patients) assessed as 4',5-dihydroxy diclofenac at 75 mg, po bid administered for 6 to 10 months by capillary column gas chromatographic method; settings: human, in vivo
Homo sapiens [7] = assay: AUC (0 to infinity) in healthy volunteer (3 volunteers) assessed as 4',5-dihydroxy diclofenac at 100 mg, po administered as single dose by capillary column gas chromatographic method; parameters: dose 100 mg, time infinity, route oral; settings: in vivo
Homo sapiens [8] = assay: Apparent elimination half life in healthy volunteer (3 volunteers) assessed as 4'-hydroxy diclofenac at 100 mg, po administered as single dose by capillary column gas chromatographic method; settings: in vivo
[9] = Tmax in healthy volunteer (3 volunteers) at 100 mg, po administered as single dose by capillary column gas chromatographic method; settings: human, in vivo
Homo sapiens [10] = assay: AUC (0 to 96 hrs) in healthy volunteer (3 volunteers) assessed as 5-hydroxy diclofenac at 100 mg, po administered as single dose by capillary column gas chromatographic method; parameters: dose 100 mg, time < 96 hr, route oral; settings: in vivo
Homo sapiens [11] = assay: AUC (0 to infinity) in healthy volunteer (3 volunteers) assessed as 3'-hydroxy diclofenac at 100 mg, po administered as single dose by capillary column gas chromatographic method; parameters: dose 100 mg, time infinity, route oral; settings: in vivo
Homo sapiens [12] = assay: AUC (0 to infinity) in healthy volunteer (3 volunteers) at 100 mg, po administered as single dose by capillary column gas chromatographic method; parameters: dose 100 mg, time infinity, route oral; settings: in vivo
Homo sapiens [13] = assay: Apparent elimination half life in healthy volunteer (3 volunteers) assessed as 4',5-dihydroxy diclofenac at 100 mg, po administered as single dose by capillary column gas chromatographic method; settings: in vivo
Homo sapiens [14] = assay: Apparent elimination half life in healthy volunteer (3 volunteers) assessed as 3'-hydroxy-4'-methoxy diclofenac at 100 mg, po administered as single dose by capillary column gas chromatographic method; settings: in vivo
Homo sapiens [15] = assay: Cmax in healthy volunteer (3 volunteers) assessed as 3'-hydroxy diclofenac at 100 mg, po administered as single dose by capillary column gas chromatographic method; parameters: dose 100 mg, route oral; settings: in vivo
Homo sapiens [16] = assay: Cmax in healthy volunteer (3 volunteers) assessed as 5-hydroxy diclofenac at 100 mg, po administered as single dose by capillary column gas chromatographic method; parameters: dose 100 mg, route oral; settings: in vivo
Homo sapiens [17] = assay: AUC (0 to infinity) in healthy volunteer (3 volunteers) assessed as 5-hydroxy diclofenac at 100 mg, po administered as single dose by capillary column gas chromatographic method; parameters: dose 100 mg, route oral, time infinity; settings: in vivo
Homo sapiens [18] = assay: AUC (0 to infinity) in healthy volunteer (3 volunteers) assessed as 4'-hydroxy diclofenac at 100 mg, po administered as single dose by capillary column gas chromatographic method; parameters: dose 100 mg, route oral, time infinity; settings: in vivo
Homo sapiens [19] = assay: Tmax in healthy volunteer (3 volunteers) assessed as 4'-hydroxy diclofenac at 100 mg, po administered as single dose by capillary column gas chromatographic method; settings: in vivo
Homo sapiens [20] = assay: AUC (0 to infinity) in healthy volunteer (2 volunteers) assessed as 3'-hydroxy-4'-methoxy diclofenac at 100 mg, po administered as single dose by capillary column gas chromatographic method; parameters: dose 100 mg, route oral, time infinity; settings: in vivo
[21] = Total drug excretion in healthy volunteer (3 volunteers) urine assessed as 5-hydroxy diclofenac at 100 mg, po administered as single dose measured over 96 hrs by capillary column gas chromatographic method; settings: human, in vivo
[22] = Total drug excretion in healthy volunteer (3 volunteers) urine at 100 mg, po administered as single dose measured over 96 hrs by capillary column gas chromatographic method; settings: human, in vivo
Homo sapiens [23] = assay: Cmax in healthy volunteer (3 volunteers) at 100 mg, po administered as single dose by capillary column gas chromatographic method; parameters: dose 100 mg, route oral; settings: in vivo
Homo sapiens [24] = assay: Cmax in healthy volunteer (3 volunteers) assessed as 4',5-dihydroxy diclofenac at 100 mg, po administered as single dose by capillary column gas chromatographic method; parameters: dose 100 mg, route oral; settings: in vivo
Homo sapiens [25] = assay: Tmax in healthy volunteer (3 volunteers) assessed as 5-hydroxy diclofenac at 100 mg, po administered as single dose by capillary column gas chromatographic method; settings: in vivo
[26] = Apparent elimination half life in healthy volunteer (3 volunteers) at 100 mg, po administered as single dose by capillary column gas chromatographic method; settings: human, in vivo, read-out: betat1/2(app) (converted)
[27] = Total drug excretion in healthy volunteer (3 volunteers) urine assessed as 3'-hydroxy-4'-methoxy diclofenac at 100 mg, po administered as single dose measured over 96 hrs by capillary column gas chromatographic method; settings: human, in vivo
[28] = Total drug excretion in healthy volunteer (3 volunteers) urine assessed as 4',5-dihydroxy diclofenac at 100 mg, po administered as single dose measured over 96 hrs by capillary column gas chromatographic method; settings: human, in vivo
[29] = Total drug excretion in healthy volunteer (3 volunteers) urine assessed as 4'-hydroxy diclofenac at 100 mg, po administered as single dose measured over 96 hrs by capillary column gas chromatographic method; settings: human, in vivo
Homo sapiens [30] = assay: AUC (0 to 96 hrs) in healthy volunteer (3 volunteers) assessed as 3'-hydroxy-4'-methoxy diclofenac at 100 mg, po administered as single dose by capillary column gas chromatographic method; parameters: dose 100 mg, time < 96 hr, route oral; settings: in vivo
Homo sapiens [31] = assay: AUC (0 to 72 hrs) in healthy volunteer assessed as 3'-hydroxy-4'-methoxy diclofenac at 100 mg, po administered as single dose by capillary column gas chromatographic method; parameters: time < 72 hr, dose 100 mg, route oral; settings: in vivo
Homo sapiens [32] = assay: Tmax in healthy volunteer (3 volunteers) assessed as 3'-hydroxy-4'-methoxy diclofenac at 100 mg, po administered as single dose by capillary column gas chromatographic method; settings: in vivo
Homo sapiens [33] = assay: AUC (0 to 96 hrs) in healthy volunteer (3 volunteers) assessed as 4',5-dihydroxy diclofenac at 100 mg, po administered as single dose by capillary column gas chromatographic method; parameters: time < 96 hr, dose 100 mg, route oral; settings: in vivo
Homo sapiens [34] = assay: AUC (0 to 96 hrs) in healthy volunteer (3 volunteers) assessed as 3'-hydroxy diclofenac at 100 mg, po administered as single dose by capillary column gas chromatographic method; parameters: dose 100 mg, time < 96 hr, route oral; settings: in vivo
Homo sapiens [35] = assay: Apparent elimination half life in healthy volunteer (3 volunteers) assessed as 5-hydroxy diclofenac at 100 mg, po administered as single dose by capillary column gas chromatographic method; settings: in vivo
Homo sapiens [36] = assay: Tmax in healthy volunteer (3 volunteers) assessed as 3'-hydroxy diclofenac at 100 mg, po administered as single dose by capillary column gas chromatographic method; settings: in vivo
Homo sapiens [37] = assay: AUC (0 to 96 hrs) in healthy volunteer (3 volunteers) assessed as 4'-hydroxy diclofenac at 100 mg, po administered as single dose by capillary column gas chromatographic method; parameters: time < 96 hr, dose 100 mg, route oral; settings: in vivo
Homo sapiens [38] = assay: Apparent elimination half life in healthy volunteer (3 volunteers) assessed as 3'-hydroxy diclofenac at 100 mg, po administered as single dose by capillary column gas chromatographic method; settings: in vivo
Homo sapiens [39] = assay: Tmax in healthy volunteer (3 volunteers) assessed as 4',5-dihydroxy diclofenac at 100 mg, po administered as single dose by capillary column gas chromatographic method; settings: in vivo
Homo sapiens [40] = assay: Cmax in healthy volunteer (3 volunteers) assessed as 3'-hydroxy-4'-methoxy diclofenac at 100 mg, po administered as single dose by capillary column gas chromatographic method; parameters: dose 100 mg, route oral; settings: in vivo
[41] = Total drug excretion in healthy volunteer (3 volunteers) urine assessed as 3'-hydroxy diclofenac at 100 mg, po administered as single dose measured over 96 hrs by capillary column gas chromatographic method; settings: human, in vivo
Homo sapiens [42] = assay: Cmax in healthy volunteer (3 volunteers) assessed as 4'-hydroxy diclofenac at 100 mg, po administered as single dose by capillary column gas chromatographic method; parameters: dose 100 mg, route oral; settings: in vivo
Homo sapiens [43] = assay: AUC (0 to 96 hrs) in healthy volunteer (3 volunteers) at 100 mg, po administered as single dose by capillary column gas chromatographic method; parameters: time < 96 hr, dose 100 mg, route oral; settings: in vivo

Cminss (Plasma [1]): 0.234 nmol/g
Cminss (Plasma [2]): 0.302 nmol/g
Cminss (Plasma [3]): 0.565 nmol/g
Cminss (Plasma [4]): 0.438 nmol/g
Cminss (Plasma [5]): 3.687 nmol/g
Cminss (Plasma [6]): 0.252 nmol/g
SMILES: Cc1nnc(SCC2=C(C(=O)O)N3C(=O)[C@@H](NC(=O)Cn4cc(Cl)c(=O)c(Cl)c4)[C@H]3SC2)s1 [CEFAZEDONE]

AUC (Homo sapiens [7]): 1.46 nmol·h/g
betat1/2(app) (Homo sapiens [8]): 2 h
Tmax [9]: 19.8 min
AUC (Homo sapiens [10]): 0.58 nmol·h/g
AUC (Homo sapiens [11]): 1.71 nmol·h/g
AUC (Homo sapiens [12]): 6.05 nmol·h/g
betat1/2(app) (Homo sapiens [13]): 2.6 h
betat1/2(app) (Homo sapiens [14]): 78 h
Cmax (Homo sapiens [15]): 0.36 nmol/g
Cmax (Homo sapiens [16]): 0.45 nmol/g
AUC (Homo sapiens [17]): 0.58 nmol·h/g
AUC (Homo sapiens [18]): 2.43 nmol·h/g
Tmax (Homo sapiens [19]): 19.8 min
AUC (Homo sapiens [20]): 61.82 nmol·h/g
Drug excretion [21]: 4.66 %ID
Drug excretion [22]: 4.45 %ID
Cmax (Homo sapiens [23]): 9.73 nmol/g
Cmax (Homo sapiens [24]): 0.44 nmol/g
Tmax (Homo sapiens [25]): 19.8 min
half-life [26]: 60 min
Drug excretion [27]: 1.3 %ID
Drug excretion [28]: 5.86 %ID
Drug excretion [29]: 9.92 %ID
AUC (Homo sapiens [30]): 35.22 nmol·h/g
AUC (Homo sapiens [31]): 46.09 nmol·h/g
Tmax (Homo sapiens [32]): 12 h
AUC (Homo sapiens [33]): 1.46 nmol·h/g
AUC (Homo sapiens [34]): 1.71 nmol·h/g
betat1/2(app) (Homo sapiens [35]): 1 h
Tmax (Homo sapiens [36]): 19.8 min
AUC (Homo sapiens [37]): 2.43 nmol·h/g
betat1/2(app) (Homo sapiens [38]): 1.1 h
Tmax (Homo sapiens [39]): 40.2 min
Cmax (Homo sapiens [40]): 0.49 nmol/g
Drug excretion [41]: 2.79 %ID
Cmax (Homo sapiens [42]): 1.19 nmol/g
AUC (Homo sapiens [43]): 6.05 nmol·h/g
SMILES: O=C([O-])Cc1ccccc1Nc1c(Cl)cccc1Cl.[Na+] [DICLOFENAC SODIUM]
